Data published in PMC8700061, “Fragment-Sized and Bidentate (Immuno)Proteasome Inhibitors Derived from Cysteine and Threonine Targeting Warheads” (Cells, 2021).

Tests used:
Type in all cases: biochemical
hBChE = target: T1, hBChE (Homo sapiens, UniProt P06276); assay: Cholinesterase assay (Ellman), hBChE; details: 30 min pre-incubation, read-out: Residual activity [%] ± SD, hBChE
T1 construct: gift of Xavier Brazzolotto, Florian Nachon and José Dias (IRBA, Brétigny-sur-Orge, France)
Protocol: (§1) The activity of the compounds against ChEs, namely hAChE and hBChE, was determined by the Ellman method. 5,5′-Dithiobis-2-nitrobenzoic acid (Ellman’s reagent; DTNB), butyrylthiocholine iodide, and acetylthiocholine iodides were from Sigma-Aldrich. Recombinant hAChE and hBChE were kindly provided by Xavier Brazzolotto, Florian Nachon, and José Dias (IRBA, Brétigny-sur-Orge, France). Reactions were performed in a final volume of 300 µL of 0.1 M phosphate-buffered solution, pH = 8.0, containing 370 µM DTNB, 500 μM butyrylthiocholine/acetylthiocholine iodide, and approximately 1 nM or 50–100 pM hBChE or hAChE, respectively. The reactions were started by the addition of the substrate after 30-min pre-incubation at room temperature. The final organic solvent (DMSO) content was always 1%. The formation of the yellow 5-thio-2-nitrobenzoate anion was monitored for 2 min at 412 nm, using a 96-well microplate reader (Synergy HT, BioTek Instruments, Inc., Santa Clara, CA, USA). The initial velocities in the presence (vi) and absence (vo) of the test compounds were calculated. Inhibitory potencies were expressed as residual activities (RA), according to the equation RA = (vi − b)/(vo − b), where b is the blank value.

hAChE = target: T2, hAChE (Homo sapiens, UniProt P22303); assay: Cholinesterase assay (Ellman), hAChE; details: 30 min pre-incubation, read-out: Residual activity [%] ± SD, hAChE
T2 construct: gift of Xavier Brazzolotto, Florian Nachon and José Dias (IRBA, Brétigny-sur-Orge, France)
T2 sequence (P22303 32-614): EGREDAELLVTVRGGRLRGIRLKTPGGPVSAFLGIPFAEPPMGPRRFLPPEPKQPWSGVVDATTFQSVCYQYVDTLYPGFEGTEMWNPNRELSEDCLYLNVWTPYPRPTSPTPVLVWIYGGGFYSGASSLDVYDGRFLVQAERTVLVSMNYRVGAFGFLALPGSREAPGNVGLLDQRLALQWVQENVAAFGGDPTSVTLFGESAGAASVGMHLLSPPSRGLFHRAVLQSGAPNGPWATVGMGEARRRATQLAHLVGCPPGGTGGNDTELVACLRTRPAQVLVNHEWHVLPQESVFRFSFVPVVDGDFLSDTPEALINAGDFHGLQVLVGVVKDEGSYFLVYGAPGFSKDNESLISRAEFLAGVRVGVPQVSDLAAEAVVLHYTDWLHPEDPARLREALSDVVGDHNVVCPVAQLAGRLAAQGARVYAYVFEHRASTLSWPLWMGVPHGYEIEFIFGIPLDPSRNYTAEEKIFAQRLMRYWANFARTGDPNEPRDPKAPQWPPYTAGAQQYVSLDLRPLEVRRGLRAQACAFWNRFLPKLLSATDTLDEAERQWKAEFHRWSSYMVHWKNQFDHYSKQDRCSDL
Protocol: as §1

β2i subunit of human iCP = target: T3, β2i subunit of human iCP (Homo sapiens, UniProt P40306+P49720); assay: Residual β2i activity, Boc-LRR-AMC; details: 10 µM, PA28α
T3 construct: purchased Boston Biochem, Inc., Cambridge, MA, USA
Protocol: Residual activity measurements were performed at 10 μM final concentrations in the assay buffer (0.01% SDS, 50 mM Tris-HCl, 0.5 mM EDTA, pH 7.4). Stock solutions of the compounds were prepared in DMSO. To 50 μL of each compound in buffer, 25 μL of 0.8 nM human iCP or human cCP (both from Boston Biochem, Inc., Cambridge, MA, USA) were added. After incubation at 37 °C for 30 min, the reaction was started by adding of 25 μL of 100 μM relevant fluorogenic substrate: acetyl-Nle-Pro-Nle-Asp-AMC (Ac-nLPnLD-AMC, (Bachem, Bubendorf, Switzerland)) for β1, acetyl-Pro-Ala-Leu-7-amino-4-methylcoumarin (Ac-PAL-AMC, (Boston Biochem, Inc., Cambridge, MA, USA)) for β1i, t-butyloxycarbonyl-Leu-Arg-Arg-7-amino-4-methylcoumarin (Boc-LRR-AMC, (Bachem, Bubendorf, Switzerland)) for β2 and β2i, succinyl-Leu-Leu-Val-Tyr-7-amino-4-methylcoumarin (Suc-LLVY-AMC) (Bachem, Bubendorf, Switzerland) for β5 and β5i. Reaction progress was recorded on BioTek Synergy HT microplate reader by monitoring fluorescence at 460 nm (λex = 360 nm) for 90 min at 37 °C. The initial linear ranges were used to calculate velocity and determine residual activity. In the case of evaluation of β1, βi, β2, and β2i activities, the assay buffer was modified by replacing SDS with the proteasomal activator PA28α (Boston Biochem, Inc., Cambridge, MA, USA).

hMAO-A = target: T4, hMAO-A (Homo sapiens, UniProt P21397); assay: Monoamine oxidase assay, hMAO-A; details: 30 min pre-incubation, read-out: Residual activity [%] ± SD, hMAO-A
T4 construct: purchased Sigma Aldrich; host or cells: BTI-TN-5B1-4 insect cells
T4 sequence (P21397 1-527): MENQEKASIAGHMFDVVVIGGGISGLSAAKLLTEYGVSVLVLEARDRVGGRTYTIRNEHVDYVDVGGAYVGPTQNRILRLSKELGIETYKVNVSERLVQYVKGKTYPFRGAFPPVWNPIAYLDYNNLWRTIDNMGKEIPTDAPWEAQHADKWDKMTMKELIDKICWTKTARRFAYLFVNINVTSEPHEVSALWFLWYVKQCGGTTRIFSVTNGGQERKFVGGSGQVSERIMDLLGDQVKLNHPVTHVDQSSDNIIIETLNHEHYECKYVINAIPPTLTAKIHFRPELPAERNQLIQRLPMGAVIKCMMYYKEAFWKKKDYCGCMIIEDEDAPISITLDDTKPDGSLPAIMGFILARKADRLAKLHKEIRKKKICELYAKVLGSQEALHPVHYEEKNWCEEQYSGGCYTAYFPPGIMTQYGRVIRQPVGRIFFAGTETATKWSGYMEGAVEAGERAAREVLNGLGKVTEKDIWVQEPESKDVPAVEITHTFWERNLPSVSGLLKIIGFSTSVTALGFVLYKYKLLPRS
Protocol: The effects of the test compounds on hMAO were investigated using fluorimetric assay. Recombinant hMAO-A and hMAO-B, expressed in BTI-TN-5B1-4 insect cells, horseradish peroxidase type II and p-tyramine hydrochloride were purchased from Sigma Aldrich. Amplex Red was synthesized as previously described.
Briefly, 50 mM sodium phosphate buffer (pH = 7.4, 0.05 vol.% Triton X-114) containing the compounds or the reference inhibitors and hMAO were incubated at 37 °C for 30 min. The reaction was started by adding Amplex Red (final concentration, 250 µM), horseradish peroxidase (final activity, 1 U/mL), and p-tyramine (final concentration, 1 mM). The increase in fluorescence (λex = 530 nm, λem = 590 nm) was monitored for 30 min at 37 °C. DMSO at a concentration of 1.5% (v/v) was used for the control experiments. For the determination of blank (b), the enzyme was replaced by phosphate-buffered solution. Each measurement was performed in duplicate. Inhibitory potencies were expressed as residual activities (RA), as described under the Cholinesterase assay section.

T1 sequence (P06276 29-602): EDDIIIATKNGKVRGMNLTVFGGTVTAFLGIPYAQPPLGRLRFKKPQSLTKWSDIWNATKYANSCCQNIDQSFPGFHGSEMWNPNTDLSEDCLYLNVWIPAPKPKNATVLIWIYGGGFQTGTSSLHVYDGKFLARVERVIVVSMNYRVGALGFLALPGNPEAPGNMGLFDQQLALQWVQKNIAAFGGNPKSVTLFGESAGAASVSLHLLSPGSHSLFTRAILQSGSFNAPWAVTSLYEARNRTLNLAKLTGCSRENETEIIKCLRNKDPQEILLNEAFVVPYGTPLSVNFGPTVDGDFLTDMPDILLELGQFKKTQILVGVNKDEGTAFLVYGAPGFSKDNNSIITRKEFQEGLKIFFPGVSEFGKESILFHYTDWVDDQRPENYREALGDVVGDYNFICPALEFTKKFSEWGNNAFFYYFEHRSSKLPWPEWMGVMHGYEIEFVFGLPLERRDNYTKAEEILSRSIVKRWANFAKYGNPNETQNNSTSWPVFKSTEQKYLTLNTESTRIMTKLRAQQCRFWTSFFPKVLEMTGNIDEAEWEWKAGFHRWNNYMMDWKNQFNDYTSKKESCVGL

Row | Structure (SMILES) | remaining activity at 100 µM (hBChE) [%] | remaining activity at 100 µM (hAChE) [%] | β2i (RA [%]) (β2i subunit of human iCP; Table 3) | remaining activity at 100 µM (hMAO-A) [%] | β2i (RA [%]) (β2i subunit of human iCP; Table 6)
1 | COc1cccc2oc(C#N)nc12 [Compound 6] | 36 ± 1 | > 50 | NA (NA, Not active (RA above 90%)) | 27 | 
2 | N#Cc1nc2c(O)cccc2o1 [Compound 10] | > 50 | 27 ± 2 | NA (NA, Not active (RA above 90%)) | 38 ± 2 | 
3 | N#Cc1nc2cc(O)ccc2o1 [Compound 11] | > 50 | 27 ± 1 | NA (NA, Not active (RA above 90%)) | 26 | 
4 | N#Cc1nc2cccc(O)c2o1 [Compound 13] | > 50 | 25 ± 1 | 83% | 48 ± 1 | 
5 | CC(=O)Oc1cccc2oc(C#N)nc12 [Compound 14] | > 50 | 11 ± 2 | NA (NA, Not active (RA above 90%)) | 34 | 
6 | CC(=O)Oc1ccc2oc(C#N)nc2c1 [Compound 15] | > 50 | 33 ± 2 | NA (NA, Not active (RA above 90%)) | 16 | 
7 | C=Cc1nc(CC(=O)N[C@@H](CC(C)C)B2O[C@@H]3C[C@@H]4C[C@@H](C4(C)C)[C@]3(C)O2)cs1 [Compound 28] | 27 ± 3 | > 50 |  | 42 | NA (NA, Not active (RA above 95%))
8 | CC(C)C[C@H](NC(=O)CCn1c(C#N)nc2ccccc21)B1O[C@@H]2C[C@@H]3C[C@@H](C3(C)C)[C@]2(C)O1 [Compound 30] | > 50 | > 50 |  | > 50 | NA (NA, Not active (RA above 95%))
9 | CC(C)C[C@H](NC(=O)CCCn1c(C#N)nc2ccccc21)B1O[C@@H]2C[C@@H]3C[C@@H](C3(C)C)[C@]2(C)O1 [Compound 31] | > 50 | > 50 |  | 24 | NA (NA, Not active (RA above 95%))
10 | CC(C)C[C@H](NC(=O)CCn1c(C#N)nc2ccccc21)B(O)O [Compound 34] | > 50 | > 50 |  | > 50 | NA (NA, Not active (RA above 95%))
11 | CC(C)C[C@H](NC(=O)CCCn1c(C#N)nc2ccccc21)B(O)O [Compound 35] | > 50 | > 50 |  | > 50 | NA (NA, Not active (RA above 95%))
12 | CC(C)C[C@H](NC(=O)CCn1c(C#N)nc2cccc(Cl)c21)B1O[C@@H]2C[C@@H]3C[C@@H](C3(C)C)[C@]2(C)O1 [Compound 38] | > 50 | > 50 |  | 24 ± 1 | NA (NA, Not active (RA above 95%))
13 | CC(C)C[C@H](NC(=O)Cc1ccc2oc(C#N)nc2c1)B1O[C@@H]2C[C@@H]3C[C@@H](C3(C)C)[C@]2(C)O1 [Compound 39] | 45 ± 1 | > 50 |  | 42 | NA (NA, Not active (RA above 95%))
14 | CC(C)C[C@H](NC(=O)Cc1ccc2oc(C#N)nc2c1)B(O)O [Compound 40] | 33 ± 1 | 46 ± 1 |  | 36 | NA (NA, Not active (RA above 95%))
